Test results taken from US11130769B2 (Prelude Therapeutics Incorporated, priority 2018, dated 2021).
Where two headings read alike, the source gives them in different places.

Tests used:
[1] = 16-membered ring
[2] = target: MCL-1 (Homo sapiens (Human), UniProt Q07820); test: Cell free Mcl-1:Bim affinity assay (fluorescence polarization competition); type: binding; conditions: 15 nM MCL-1, 5 nM FITC-Bim, 1 hour at room temperature; class symbols; read-out: BIM_Ki
How it was run: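 Fluorescence polarization competition: 10-point 3-fold compound dilutions displaced 5 nM FITC-Bim from 15 nM MCL-1 over 1 h at room temperature. Ki was derived from the fitted IC50 using the Nikolovska-Coleska equation, with percent inhibition normalized to DMSO and positive controls.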

[3] = tested on: H929 cells; test: Cell viability assay (H929 10 FBS); type: cell-based; conditions: Homo sapiens, NCI-H929, 24 hours, read-out: H929_10FBS IC50
How it was run: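 ATP-based luminescence (CellTiter-Glo or ATPlite 1 Step, 30-60 min at RT) gauged viability of H929 myeloma cells after 24 h compound treatment at 37 °C. Cells plated at 4000 per well in 10% FBS RPMI 1640 supplemented with pyruvate, HEPES and glucose.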

Sequence of MCL-1 (Q07820 whole entry): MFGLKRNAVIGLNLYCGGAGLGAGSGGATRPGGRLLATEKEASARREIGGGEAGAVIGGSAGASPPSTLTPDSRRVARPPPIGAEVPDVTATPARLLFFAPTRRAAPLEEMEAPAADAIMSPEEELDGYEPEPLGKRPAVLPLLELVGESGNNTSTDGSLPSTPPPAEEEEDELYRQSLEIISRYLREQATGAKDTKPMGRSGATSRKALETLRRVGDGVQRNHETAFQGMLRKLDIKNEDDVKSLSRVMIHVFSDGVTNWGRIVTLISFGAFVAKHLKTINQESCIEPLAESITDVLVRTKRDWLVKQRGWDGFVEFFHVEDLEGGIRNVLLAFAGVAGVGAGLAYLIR

Ki [2] [nM] | IC50 [3] [nM] | Compound | ring closure, yield after HPLC ([1]; from CN[C@@H](C)C(=O)NS(=O)(=O)c1ccc2c(c1)N(C[C@@H]1CC[C@H]1COCC(=O)O)C[C@@]1(CCCc3cc(Cl)ccc31)CO2, amide bond, HATU/DIEA, DMF, 20.0 mM, 20.0 °C, 1.0 h) [%] | ring closure, yield after HPLC ([1]; from C=CCOC(C)(C)C(=O)NS(=O)(=O)c1ccc2c(c1)N(C[C@@H]1CC[C@H]1[C@@H](C=C)NC(=O)OC)C[C@@]1(CCCc3cc(Cl)ccc31)CO2, rcm bond, Hoveyda-Grubbs II, DCE, 1.17 mM, 40.0 °C) [%]
1 to 100 | > 1000 | C[C@H]1C(=O)NS(=O)(=O)c2ccc3c(c2)N(C[C@@H]2CC[C@H]2COCC(=O)N1C)C[C@@]1(CCCc2cc(Cl)ccc21)CO3 [Example 196, (3R,6R,12S,22S)-6′-Chloro-11,12-dimethyl-15,15-dioxo-spiro[8,20-dioxa-15-thia-1,11,14-triazatetracyclo[14.7.2.03,6.019,24]pentacosa-16,18,24-triene-22,1′-tetralin]-10,13-dione] | 24.6 | 
1 to 100 | > 1000 | COC(=O)N[C@@H]1/C=C/COC(C)(C)C(=O)NS(=O)(=O)c2ccc3c(c2)N(C[C@@H]2CC[C@H]21)C[C@@]1(CCCc2cc(Cl)ccc21)CO3 [Example 251, Methyl N-[(3R,6R,7R,8E,22S)-6′-Chloro-12,12-dimethyl-13,15,15-trioxo-spiro[11,20-dioxa-15-thia-1,14-diazatetracyclo[14.7.2.03,6.019,24]pentacosa-8,16(25),17,19(24)-tetraene-22,1′-tetralin]-7-yl]carbamate] |  | 18.4
